Results taken from US7910579B2, “Benzoxazole derivatives” (Tohoku University, priority 2006, dated 2011).

Columns and labels:
[1] = biological target: T1, amyloid β protein in the brain section of an Alzheimer disease patient (Homo sapiens, UniProt P05067); assay: Staining test on a brain section of an Alzheimer disease patient: amyloid β protein; assay type: binding; conditions: for Binding to (staining of) amyloid β protein in the brain section of an Alzheimer disease patient: 100 μM solution in 50% ethanol, 10 minutes, paraffin brain section; for Specificity to amyloid β: statement in the description of formulae (II) to (VI)
T1 construct: from tissue; host or cells: paraffin-embedded temporal lobe and hippocampus of Alzheimer disease patients
T1 sequence (P05067 672-713 limits assumed): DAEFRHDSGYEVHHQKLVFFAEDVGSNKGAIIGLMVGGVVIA
Excerpt: (§1) (1) Brain specimens at the temporal lobe and the hippocampus of patients to which a definitive diagnosis of Alzheimer disease had been given, and those of normal senile persons were used. The specimens were given by our coworker, Fukushimura Hospital, Longevity Medicine Institute, and we were given their consent of use of the specimens for our study purpose by the bereaved of the patients (Fukushimura Hospital Ethical Review Board Approval No. 20).
(§2) (2) The paraffin-embedded brain tissue was cut Into slices having a thickness of 6 μm or 8 μm, and extended and dried on a slide. The paraffin brain section was steeped for paraffin removal in xylene twice for 10 minutes, 100% ethanol twice for 5 minutes, 90% ethanol for 5 minutes and running water for 10 minutes in that order.
(§3) (3) For pretreatment prior to the staining treatment with a compound of the invention, the sections were steeped for autofluorescence removal with lipofuscin. First, the paraffin-removed sections were dipped in 0.25% KMnO4 solution for 20 minutes. These were washed with PBS, twice for 2 minutes, then dipped in 0.1% K2S2O5/oxalic acid solution for about 5 seconds, and then further washed with PBS, three times for 2 minutes.
(§4) (4) About 150 μl of a 100 μM solution of a compound of the invention dissolved in 50% ethanol was dropwise applied to the section and reacted for 10 minutes. After dipped five times in tap water, the section was entrapped with Fluor Save Reagent (Calbiochem), and analyzed through microscopy with a fluorescence microscope (Nikon, Eclipse 80i). The images were taken with a digital camera (Nikon Dxm 1200F or Photometrics' Cool SNAP ES).
(1) After paraffin removal, the sections were washed in distilled water, twice for 2 minutes. Then, using ImmunoPen, the tissue was marked with a surrounding line; about 150 μl of formic acid was dropwise applied to the section and statically left at room temperature for 5 minutes. The section was washed with tap water for 5 minutes, then dipped in cold PBS-Tween 20 for 2 minutes, and thereafter about 150 μl of 0.05% trypsin solution was dropwise applied to it and reacted at 37° C. for 15 minutes.
(2) In an ice bath, this was washed with cold PBS-Tween 20, twice for 5 minutes, and then 2 drops of blocking serum were applied to it and reacted at 37° C. for 30 minutes. Excess water was removed, and then about 150 μl of a specific antibody to amyloid β protein, 6F/3D (by DAKO, 1/50 dilution) was dropwise applied to it, and reacted at 37° C. for 1 hour.
(3) Further, this was washed with cold PBS-Tween 20, 5 times for 2 minutes, and then 2 drops of an anti-mouse IgG (H+L), goat, biotin-binding solution were applied to it and reacted at 37° C. for 1 hour. Then, this was washed with cold PBS-Tween 20, three times for 2 minutes, and 2 drops of an ABC solution (streptoavidin-biotin-peroxidase composite solution) were applied to it, and left statically as such for 30 minutes. Again this was washed with cold PBS-Tween 20, three times for 2 minutes, and then about 150 μl of a DAB solution (10 mg of DAB was dissolved in 20 ml of 0.05 mol/liter tris-HCl buffer, and just before use, 100 μl of 3% hydrogen peroxide water was added to it) was dropwise applied to it for sufficiently staining it. Then, this was washed with distilled water for 1 minute to stop the reaction, then entrapped and observed through microscopy.

[2] = test system: neurofibrillary tangle in the brain section of an Alzheimer disease patient; assay: Staining test on a brain section of an Alzheimer disease patient: neurofibrillary tangle; assay type: binding, human; conditions: 100 μM solution in 50% ethanol, 10 minutes, paraffin brain section
Excerpt: as §1, §2, §3
as §4, with “ES). […]” for “ES).”

[3] = biological target: T2, Tg mouse intracerebral amyloid plaque (Homo sapiens, UniProt P05067); assay: Investigation of transgenic (Tg) mice with amyloid deposition in their brain (fluorescence microscopy of brain sections after intravenous administration); assay type: in vivo; conditions: APPswe2576/Tau JPL3 mouse, 4 mg/kg intravenous, 1 hour after administration
T2 construct: from tissue; host or cells: brain of Tg mice (Tg2576 or APPswe2576/Tau JNPL3) after intravenous dosing
T2 sequence (P05067 672-713 limits assumed): as above

[4] = test system: histidine-requiring Salmonella typhimurium TA100 and TA98 strains; assay: Mutagenicity Test (reverse mutation test); assay type: cell-based
Procedure: In view of their use, it is desirable that the compounds of the invention have no mutagenicity or have little mutagenicity to a level causing no problem. For investigating the gene mutagenesis of the compounds of the invention, herein carried out was a reverse mutation test with histidine-requiring Salmonella typhimurium TA100 and TA98 strains. Two tests were carried out. One is a test for dose determination test; and the other is for mutagenicity.
The test methods and the mutagenicity of the compounds of the invention are mentioned below. In the dose determination test, six doses of 0.160, 0.800, 4.00, 20.0, 100 and 500 μg/plate (common ratio 5) were tried.
As a result of the dose determination test, when the mutagenicity of the test compound was admitted, then the actual test for mutagenicity was carried out, using the dose capable of giving an accurate dose-reaction curve. When no mutagenicity of the test compound was admitted in the dose determination test and when the growth inhibition of the test cells was admitted therein, then the dose to present the growth inhibition was taken as the maximum dose; and when the growth inhibition was not admitted, then a dose of 5000 μg/plate was taken as the maximum dose. With that, the actual test for mutagenicity was carried out on the level of 6 doses (common ratio 2).
First, a test compound was dissolved or suspended in DMSO, then diluted in order to prepare test compound liquids having a varying concentration.
100 μl of a test compound liquid or a negative control (DMSO) solution was put into a sterilized test tube. Then, for the case in the absence of a metabolic activation system (−S9mix), 500 μl of 0.1 mol/liter sodium-phosphate buffer (pH 7.4) was added to it; and for the case in the presence of a metabolic activation system (+S9mix), 500 μl of S9mix was added to it.
Next, 100 μl of the test strain suspension that had been cultivated with shaking at 37° C. for 8 hours was added to it, and preincubated in a shaking thermostat at 37° C. for 20 minutes. After shaken, 2 ml of top agar was added to it, and the contents were mixed.
Next, the mixture was poured onto a minimal glucose agar plate medium (plate) and spread uniformly thereon, then the top agar was solidified, and the plate was transferred into a thermostat and incubated at 37° C. for 48 hours.
Then, the number of the colonies grown through reverse mutation was counted.
For counting it, […]. After area correction and miss-counting correction, the number of the colonies was computed. When the colony analyzer could not be used owing to the deposition of the test compound or the cell growth inhibition, then the number of the colonies was counted with the naked eye.
In case where the number of the colonies through reverse mutation increased two times or more that of the negative control and where the dose dependency or the reproducibility of the increase was admitted, then the tested sample was decided as positive. When the sample was is decided as positive, then the relative activity that indicates the relative comparative value of the intensity of the mutagenicity of the test compound was obtained according to the following formula: Relative Activity={(number of colonies per plate having the concentration)−(number of colonies per negative control plate)}/the value of concentration (mg/plate).

Acute Toxicity Test = assay type: in vivo; conditions: Crj:CD1 male mice, tail vein, observed for 7 days
Procedure: The compounds of the invention were tested for their acute toxicity through intravenous administration thereof to mice. Four Crj:CD1 male mice formed one test group, and some test groups of those mice were used (the mean body weight of the mice of each group was from 31 to 32 g). A test compound was dissolved in a mixture of 1 N HCl, polyethylene glycol-400 and distilled water, or dissolved in DMSO, and then diluted with distilled water. This was administered to each mouse via its tail vein.

Row | Binding to (staining of) amyloid β protein in the brain section of an Alzheimer disease patient [1] | Specificity to amyloid β [1] | Compound | Binding to (staining of) neurofibrillary tangle in the brain section of an Alzheimer disease patient [2] | Passage through the blood-brain barrier and binding to Tg mouse intracerebral amyloid plaque [3] | Relative activity (mutagenicity) ([4]; irrespective of the absence or presence of S9mix) | Relative Activity in the presence of S9Mix ([4]; reverse mutation test, +S9mix) | Relative Activity in the absence of S9Mix ([4]; reverse mutation test, -S9mix) | Maximum Permissible Dose (mg/kg, intravenous administration) (Acute Toxicity Test)
1 | bound to the amyloid β protein | high specificity to amyloid β | CN1C=CC(=CC=C2C=CC(=O)C=C2)C=C1 [THK-317, 4-[2-(1-methyl-1H-pyridin-4-ylidene)-ethylidene]-cyclohexa-2,5-dienone] | bound to the amyloid β protein and the neurofibrillary tangle |  |  |  |  | 
2 | bound to the amyloid β protein | high specificity to amyloid β | CN1C=CC(=C/C=C2\C=Nc3ccccc32)C=C1 [THK-185, 3-[2-(1-methyl-1H-pyridin-4-ylidene)-ethylidene]-3H-indole] | bound to the amyloid β protein and the neurofibrillary tangle |  |  |  |  | 

Row | Compound | Binding to (staining of) amyloid β protein in the brain section of an Alzheimer disease patient [1] | Specificity to amyloid β [1] | Binding to (staining of) neurofibrillary tangle in the brain section of an Alzheimer disease patient [2] | Passage through the blood-brain barrier and binding to Tg mouse intracerebral amyloid plaque [3] | Relative activity (mutagenicity) ([4]; irrespective of the absence or presence of S9mix) | Relative Activity in the presence of S9Mix ([4]; reverse mutation test, +S9mix) | Relative Activity in the absence of S9Mix ([4]; reverse mutation test, -S9mix) | Maximum Permissible Dose (mg/kg, intravenous administration) (Acute Toxicity Test)
3 | OCC(CF)COc1ccc2nc(/C=C/c3cnc(N4CCOCC4)s3)oc2c1 (stereo not shown) [THK-727, 2-fluoromethyl-3-[2-[2-(2-morpholin-4-yl-thiazol-5-yl)-vinyl]-benzoxazol-6-yloxy]-propan-1-ol] | white space arrow indicates amyloid β protein |  | white space arrow head indicates neurofibrillary tangle | passed through the blood-brain barrier, and bound to the Tg mouse intracerebral amyloid plaque | minus | minus | minus | ≧10 mg/kg
